From patent publication US11000458B2, “Method and product for producing formulations containing ceramide” (Evonik Operations GmbH, priority 2017, dated 2021)

Test: Minimum required dissolution temperature of ceramide NP in oils
Format: physicochemical
Method: The minimum required dissolution temperature for 0.1 g of ceramide NP in 20 g of various oils was determined.

## Ceramide NP
0.1 g of ceramide NP in 20 g Caprylic/Capric Triglycerides (TEGOSOFT ® CT)
  required dissolution temperatures: 95 °C
0.1 g of ceramide NP in 20 g Ethylhexyl Stearate (TEGOSOFT ® OS)
  required dissolution temperatures: 100 °C
0.1 g of ceramide NP in 20 g Persea gratissima (Avocado) oil
  required dissolution temperatures: 100 °C
